Source: article PMC6526117 (Experimental Neurobiology, 2019)
Residue numbers refer to the chain shown, from its start.

Tests used:
Experiment in all cases: whole-cell patch clamp, SCAM block of ICl,swell
Assay type in all cases: cell-based
Details in all cases: read-out: % block
TTYH1 [1] = target: T1, TTYH1 (Mus musculus, UniProt Q9D3A9)
T1 sequence (Q9D3A9 1-450): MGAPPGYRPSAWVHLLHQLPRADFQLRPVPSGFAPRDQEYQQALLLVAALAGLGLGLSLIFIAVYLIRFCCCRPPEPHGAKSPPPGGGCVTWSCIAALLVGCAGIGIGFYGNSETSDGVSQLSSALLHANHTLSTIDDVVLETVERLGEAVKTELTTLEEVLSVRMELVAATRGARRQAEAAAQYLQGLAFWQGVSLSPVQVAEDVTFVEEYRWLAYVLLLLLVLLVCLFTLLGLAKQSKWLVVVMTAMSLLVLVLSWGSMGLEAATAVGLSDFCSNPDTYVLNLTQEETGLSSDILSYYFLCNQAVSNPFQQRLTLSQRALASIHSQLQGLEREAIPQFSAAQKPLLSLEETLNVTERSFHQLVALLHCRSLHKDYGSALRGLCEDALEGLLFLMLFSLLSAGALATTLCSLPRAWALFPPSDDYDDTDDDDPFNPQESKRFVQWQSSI

TTYH1 [2] = target: T2, TTYH1 (Mus musculus, UniProt Q9D3A9, R165C)
T2 sequence (Q9D3A9 1-450 R165C): T1 sequence (Q9D3A9 1-450) with R165C

TTYH1 [3] = target: T3, TTYH1 (Mus musculus, UniProt Q9D3A9, V164C)
T3 sequence (Q9D3A9 1-450 V164C): T1 sequence (Q9D3A9 1-450) with V164C

inhibition at 100000 µM (TTYH1 [1]): 9.01%
inhibition at 100000 µM (TTYH1 [2]): 36.6%
inhibition at 100000 µM (TTYH1 [3]): 28.9%
SMILES: CS(=O)(=O)SCCS(=O)(=O)O [MTSES]
